Measurements from patent US11254652B2, “Crystalline forms of N-(4-(4-(cyclopropymethyl)piperazine-1-carbonyl)phenyl)quinoline-8-sulfonamide” (Agios Pharmaceuticals, Inc., priority 2017, dated 2022).
Read-outs that look alike come from different tables or passages of the source.

Assays:
[1] = Solubility measurements by gravimetric method in solvents at 23° C. and 50° C.; format: physicochemical; conditions: for solubility at 2 days: thermodynamic from solid
Description: Solubility measurements were done by gravimetric method in 20 different solvents at two temperatures (23° C. and 50° C.). About 20-30 mg of Form A, the synthesis of which is described below, was weighed and 0.75 mL solvent was added to form a slurry. The slurry was then stirred for two days at the specified temperature. The vial was centrifuged and the supernatant was collected for solubility measurement through gravimetric method. The saturated supernatant was transferred into pre-weighed 2 mL HPLC vials and weighed again (vial+liquid). The uncapped vial was then left on a 50° C. hot plate to slowly evaporate the solvent overnight. The vials were then left in the oven at 50° C. and under vacuum to remove the residual solvent so that only the dissolved solid remained. The vial was then weighed (vial+solid). From these three weights; vial, vial+liquid and vial+solid; the weight of dissolved solid and the solvent were calculated. Then using solvent density the solubility was calculated as mg solid/mL of solvent.
20-30 mg of Form A was weighed into 2 mL vial and 500 μL MeOH solvent system as outlined in the table was added. If dissolved, more solids were added to form the slurry. The slurries were then stirred for two days. The vials were centrifuged and the supernatant was collected for solubility measurement through gravimetric method by evaporation at 50° C. XRPD analysis was conducted on the solid after filtration of the slurries.
For the sake of comparison, the solubility of Compound 1, i.e., the non-crystalline freebase, was also measured in two solvent systems to see the effect of water.

[2] = Stability study of Form A under temperature/RH storage; format: physicochemical

## O=C(c1ccc(NS(=O)(=O)c2cccc3cccnc23)cc1)N1CCN(CC2CC2)CC1 [Form A, 1-(cyclopropylmethyl)-4-(4-(quinoline-8-sulfonamido)benzoyl)piperazin-1-ium hemisulfate sesquihydrate]
[1]; MeOAc:MeOH (1:1) and 2.5 vol % water, 23 °C, organic solvent or mixture, MeOAc:MeOH (1:1) and 2.5 vol % water, 23° C., read-out: Solubility
  solubility at 2 days: 39000 µg/mL
[1]; MeOAc:MeOH (1:1) and 2.5 vol % water, 50 °C, organic solvent or mixture, MeOAc:MeOH (1:1) and 2.5 vol % water, 50° C., read-out: Solubility
  solubility at 2 days: 143000 µg/mL
[1]; MeOAc:MeOH (1:1) and 5 vol % water, 23 °C, organic solvent or mixture, MeOAc:MeOH (1:1) and 5 vol % water, 23° C., read-out: Solubility
  solubility at 2 days: 5000 µg/mL
[1]; MeOAc:MeOH (1:1) and 5 vol % water, 50 °C, organic solvent or mixture, MeOAc:MeOH (1:1) and 5 vol % water, 50° C., read-out: Solubility
  solubility at 2 days: 26000 µg/mL
[1]; MeOAc:MeOH (1:1), 23 °C, organic solvent or mixture, MeOAc:MeOH (1:1), 23° C., read-out: Solubility
  solubility at 2 days: 208000 µg/mL
[1]; MeOAc:MeOH (1:1), 50 °C, organic solvent or mixture, MeOAc:MeOH (1:1), 50° C., read-out: Solubility
  solubility at 2 days: 340000 µg/mL
[1]; MeOH, 23 °C, organic solvent or mixture, MeOH, 23° C., 2 days slurry, read-out: Solubility
  solubility at 2 days: 393000 µg/mL
[1]; MeOH, 50 °C, organic solvent or mixture, MeOH, 50° C., 2 days slurry, read-out: Solubility
  solubility at 2 days: > 765000 µg/mL
[1]; MeOH:Water (1:1), 23 °C, aqueous with cosolvent or surfactant or cyclodextrin, MeOH:Water (1:1), 23° C., read-out: Solubility
  solubility at 2 days: 7000 µg/mL
[1]; MeOH:Water (1:1), 50 °C, aqueous with cosolvent or surfactant or cyclodextrin, MeOH:Water (1:1), 50° C., read-out: Solubility
  solubility at 2 days: 27000 µg/mL
[1]; MeOH:water (1:1) system as printed, 0 vol % water, organic solvent or mixture, MeOH:water (1:1) system as printed, 0 vol % water, read-out: room temperature solubility
  solubility at 2 days: 208000 µg/mL
[1]; MeOH:water (1:1) system as printed, 1% water, organic solvent or mixture, MeOH:water (1:1) system as printed, 1% water, read-out: room temperature solubility
  solubility at 2 days: 118000 µg/mL
[1]; MeOH:water (1:1) system as printed, 2.5% water, organic solvent or mixture, MeOH:water (1:1) system as printed, 2.5% water, read-out: room temperature solubility
  solubility at 2 days: 39000 µg/mL
[1]; MeOH:water (1:1) system as printed, 5% water, organic solvent or mixture, MeOH:water (1:1) system as printed, 5% water, read-out: room temperature solubility
  solubility at 2 days: 5000 µg/mL
[1]; MeOH:water (8:2), 23 °C, organic solvent or mixture, MeOH:water (8:2), 23° C., read-out: Solubility
  solubility at 2 days: 10000 µg/mL
[1]; MeOH:water (8:2), 50 °C, organic solvent or mixture, MeOH:water (8:2), 50° C., read-out: Solubility
  solubility at 2 days: 59000 µg/mL
[1]; MtBE, 23 °C, organic solvent or mixture, MtBE, 23° C., read-out: Solubility
  solubility at 2 days: 1000 µg/mL
[1]; MtBE, 50 °C, organic solvent or mixture, MtBE, 50° C., read-out: Solubility
  solubility at 2 days: 3000 µg/mL
[1]; THF, 23 °C, organic solvent or mixture, THF, 23° C., read-out: Solubility
  solubility at 2 days: 2000 µg/mL
[1]; THF, 50 °C, organic solvent or mixture, THF, 50° C., read-out: Solubility
  solubility at 2 days: 26000 µg/mL
[1]; THF:water (8:2), 23 °C, organic solvent or mixture, THF:water (8:2), 23° C., read-out: Solubility
  solubility at 2 days: 14000 µg/mL
[1]; THF:water (8:2), 50 °C, organic solvent or mixture, THF:water (8:2), 50° C., read-out: Solubility
  solubility at 2 days: 77000 µg/mL
[1]; Toluene, 23° C.
  Solubility: 0 mg solid/mL solvent
[1]; Toluene:EtOH:water (10:5:0.5), 23 °C, organic solvent or mixture, Toluene:EtOH:water (10:5:0.5), 23° C., read-out: Solubility
  solubility at 2 days: 1000 µg/mL
[1]; Toluene:EtOH:water (10:5:0.5), 50 °C, organic solvent or mixture, Toluene:EtOH:water (10:5:0.5), 50° C., read-out: Solubility
  solubility at 2 days: 4000 µg/mL
[1]; acetone, 23 °C, organic solvent or mixture, Acetone, 23° C., read-out: Solubility
  solubility at 2 days: 1000 µg/mL
[1]; acetone, 50 °C, organic solvent or mixture, Acetone, 50° C., read-out: Solubility
  solubility at 2 days: 6000 µg/mL
[1]; acetone:water (8:2), 23 °C, organic solvent or mixture, acetone:water (8:2), 23° C., read-out: Solubility
  solubility at 2 days: 5000 µg/mL
[1]; acetone:water (8:2), 50 °C, organic solvent or mixture, acetone:water (8:2), 50° C., read-out: Solubility
  solubility at 2 days: 16000 µg/mL
[1]; acetonitrile, 23 °C, organic solvent or mixture, Acetonitrile, 23° C., read-out: Solubility
  solubility at 2 days: 4000 µg/mL
[1]; acetonitrile, 50 °C, organic solvent or mixture, Acetonitrile, 50° C., read-out: Solubility
  solubility at 2 days: 6000 µg/mL
[1]; cyclohexane, 23 °C, organic solvent or mixture, Cyclohexane, 23° C., read-out: Solubility
  solubility at 2 days: 1000 µg/mL
[1]; cyclohexane, 50 °C, organic solvent or mixture, Cyclohexane, 50° C., read-out: Solubility
  solubility at 2 days: 1000 µg/mL
[1]; room temperature, 0 vs 5 vol % water
  decrease of solubility on adding 5 vol % water: 42 fold
[1]; toluene, 50 °C, organic solvent or mixture, Toluene, 50° C., read-out: Solubility
  solubility at 2 days: 2000 µg/mL
[2]; one month under 40±2° C./75±5% RH
  degradation in stability study: No degradation
[2]; three months at 30±2° C./65±5% RH
  degradation in stability study: No degradation
[2]; three months under 25±2° C./60±5% RH
  degradation in stability study: No degradation
[2]; three months under 40±2° C./75% RH
  degradation in stability study: No degradation
[2]; twelve months under 25±2° C./60±5% RH
  degradation in stability study: No degradation
